From patent US4914127A, “3-Demethylmevalonic acid derivatives, a process for their preparation pharmaceutical products based on these compounds, their use and intermediates” (Hoechst Aktiengesellschaft, priority 1985, dated 1990)
Read-outs that look alike come from different tables or passages of the source.

How the values were obtained:
[1] = in the rat; cited from earlier work
[2] = in human trials; cited from earlier work
HMG-CoA reductase = biological target: T1, HMG-CoA reductase (Rattus norvegicus, UniProt P51639); test: HMG-CoA reductase activity in solubilized enzyme preparations from liver microsomes of rats; assay type: biochemical; settings: 14C-HMG-CoA substrate, mean from 3 parallel samples, read-out: IC50 [M], inhibition of HMG-CoA reductase
T1 construct: solubilized enzyme preparations from liver microsomes of rats; from tissue; host or cells: liver microsomes of cholestyramine-induced rats
T1 sequence (P51639 1-887): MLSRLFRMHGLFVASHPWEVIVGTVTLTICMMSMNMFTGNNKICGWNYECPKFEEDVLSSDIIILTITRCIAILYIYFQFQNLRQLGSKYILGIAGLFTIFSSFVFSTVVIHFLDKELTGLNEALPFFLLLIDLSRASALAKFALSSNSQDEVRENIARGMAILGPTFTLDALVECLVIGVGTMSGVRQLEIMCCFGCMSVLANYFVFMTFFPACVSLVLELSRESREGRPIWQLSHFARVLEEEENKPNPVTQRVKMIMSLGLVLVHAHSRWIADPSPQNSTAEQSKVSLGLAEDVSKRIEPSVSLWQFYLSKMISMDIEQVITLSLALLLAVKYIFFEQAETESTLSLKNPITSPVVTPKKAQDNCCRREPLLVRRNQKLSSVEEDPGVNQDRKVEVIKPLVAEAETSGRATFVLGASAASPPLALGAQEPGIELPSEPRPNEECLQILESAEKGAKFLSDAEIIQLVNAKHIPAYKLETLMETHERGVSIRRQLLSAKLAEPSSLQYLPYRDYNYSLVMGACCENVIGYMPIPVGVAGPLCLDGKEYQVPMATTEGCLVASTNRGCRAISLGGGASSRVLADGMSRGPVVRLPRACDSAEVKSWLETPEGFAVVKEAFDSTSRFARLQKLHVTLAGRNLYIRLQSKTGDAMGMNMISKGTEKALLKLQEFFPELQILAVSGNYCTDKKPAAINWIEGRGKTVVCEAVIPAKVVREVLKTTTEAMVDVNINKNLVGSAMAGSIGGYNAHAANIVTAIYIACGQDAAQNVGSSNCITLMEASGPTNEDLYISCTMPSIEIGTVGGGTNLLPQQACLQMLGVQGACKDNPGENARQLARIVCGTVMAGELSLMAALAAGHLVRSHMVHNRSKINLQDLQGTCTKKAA
Procedure: 1. HMG-CoA reductase activity in enzyme preparations
The HMG-CoA reductase activity was measured on solubilized enzyme preparations from liver microsomes of rats which, after the day/night rhythm had been changed, were induced with cholestyramine (®Cuemid). The substrate used was (S,R) ^14 C-HMG-CoA, and the concentration of NADPH was maintained during the incubation by a regenerating system. ^14 C-Mevalonate was removed from the substrate and other products (for example ^14 C-HMG) by column elution, the elution profile for each individual sample being determined. Constant inclusion of ^3 H-mevalonate was dispensed with because the determination was of the relative inhibitory effect. In each series of tests, the control containing no enzyme, and the normal mixture containing enzyme (=100%) and those with added products, final concentration 10^-5 to 10^-9 M, were treated together. Each individual figure was formed as the mean from 3 parallel samples. The signficance of the differences in the means between samples containing no product and those containing product was assessed by the t test.
Using the method described above, the following figures for the inhibition of HMG-CoA reductase were determined for the compounds according to the invention, for example: […]

[3] = biological target: T2, HMG-CoA reductase (in HEP-G2 cells) (Homo sapiens, UniProt P04035); test: Suppression or inhibition of HMG-CoA reductase in cell cultures (HEP-G2 cells; method described for fibroblasts, L cells); assay type: cell-based
T2 construct: endogenous in cells; host or cells: HEP-G2 cells
T2 sequence (P04035 1-888): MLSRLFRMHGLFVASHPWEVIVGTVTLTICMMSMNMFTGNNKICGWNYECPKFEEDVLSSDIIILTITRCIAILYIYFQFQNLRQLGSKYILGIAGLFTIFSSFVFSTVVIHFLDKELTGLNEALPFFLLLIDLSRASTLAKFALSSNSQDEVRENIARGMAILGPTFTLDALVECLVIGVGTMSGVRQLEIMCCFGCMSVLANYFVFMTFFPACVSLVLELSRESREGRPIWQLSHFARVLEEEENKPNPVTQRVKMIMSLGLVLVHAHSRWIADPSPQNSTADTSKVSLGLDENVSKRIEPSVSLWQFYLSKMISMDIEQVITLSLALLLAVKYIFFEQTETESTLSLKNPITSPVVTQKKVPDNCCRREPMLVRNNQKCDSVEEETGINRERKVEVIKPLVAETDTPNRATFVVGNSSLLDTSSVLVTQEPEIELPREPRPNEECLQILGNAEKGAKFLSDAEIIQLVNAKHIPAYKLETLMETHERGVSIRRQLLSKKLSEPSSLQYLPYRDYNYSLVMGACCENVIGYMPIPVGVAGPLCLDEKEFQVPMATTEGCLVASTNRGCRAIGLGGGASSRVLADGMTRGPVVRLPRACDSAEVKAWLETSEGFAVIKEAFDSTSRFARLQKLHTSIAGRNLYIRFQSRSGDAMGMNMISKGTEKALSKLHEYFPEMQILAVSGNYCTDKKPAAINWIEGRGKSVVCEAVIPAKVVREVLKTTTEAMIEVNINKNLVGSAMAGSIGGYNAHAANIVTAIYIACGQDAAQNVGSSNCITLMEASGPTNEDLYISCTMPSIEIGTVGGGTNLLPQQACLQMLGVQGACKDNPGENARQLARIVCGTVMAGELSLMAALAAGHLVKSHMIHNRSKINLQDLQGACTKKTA
Procedure: 2. Suppression or inhibition of HMG-CoA reductase in cell cultures of fibroblasts.
Monolayers of fibroblasts (L cells) in lipoprotein-free nutrient medium were incubated with appropriate concentrations of test substances for a specified period (for example 3 hours) and then the HMG-CoA reductase activity of the cells was determined by modification of the method of Chang et al. (J. Biol. Chem. 256, 6174 (1981)). For this purpose, the cell extracts were incubated with D,L-[^3 H]-HMG-CoA, and the product [^3 H]-mevalonate formed from the cells by the action of the HMG-CoA reductase activity present was, after cyclization to [^3 H]-mevalonolactone, separated from the starting material by thin-layer chromatography and, by use of an internal standard of [^14 C]-mevalonate, the amount of [^3 H]-mevalonate formed in unit time was determined and related to the amount of cellular protein.

[4] = test system: 3-hydroxy-3-methylglutaryl-coenzyme-A reductase (HMG-CoA reductase); settings: in words; cited from earlier work

Compound	IC50 (HMG-CoA reductase) [M]	IC50 [3] [nM]	also measured
CC(O)(CC(=O)O)CC(=O)O [3-Hydroxy-3-methylglutaric acid]			cholesterol-lowering action [1]: significant cholesterol-lowering action; cholesterol-lowering action [2]: significant cholesterol-lowering action
O=C1C[C@H](O)C[C@@H](/C=C/c2c(Cl)cccc2Cc2ccc(Cl)cc2)O1 [16 ab]	2.3e-07	210000	
O=C1C[C@H](O)C[C@@H](/C=C/c2c(Cl)cccc2CC2CCCCC2)O1 [16 ac]	7.1e-08	3200	
O=C1C[C@H](O)C[C@@H](/C=C/c2ccccc2CCc2ccc(F)cc2)O1 [16 g]	9e-07	500000	
O=C1C[C@H](O)C[C@@H](/C=C/c2ccccc2CC2CCCCC2)O1 [16 j]	9e-08	380000	
O=C1C[C@H](O)C[C@@H](/C=C/c2ccccc2Cc2ccc(Cl)cc2)O1 [16 l]	8e-07		
Cc1cccc(CCC2CCCCC2)c1/C=C/[C@@H]1C[C@@H](O)CC(=O)O1 [16 u]	6.5e-07	200000	
Cc1cccc(Cc2ccc(Cl)cc2)c1/C=C/[C@@H]1C[C@@H](O)CC(=O)O1 [16 y]	2.8e-07		
O=C1C[C@H](O)C[C@@H](/C=C/c2c(Cl)cc(Cl)cc2CC2CCCCC2)O1 [16 z]	1.9e-08	1900	
CC[C@H](C)C(=O)O[C@H]1CCC=C2C=C[C@H](C)[C@H](CC[C@@H]3C[C@@H](O)CC(=O)O3)[C@H]21 [Compactin]			inhibition of HMG-CoA reductase [4]: inhibition
